Source: PMC4434909, “In vitro properties of designed antimicrobial peptides that exhibit potent antipneumococcal activity and produces synergism in combination with penicillin” (Scientific Reports, 2015)
Read-outs that look alike come from different tables or passages of the source. Where no end group is shown, it is not given here.

Experiments:
A549 cell line = assay: Cytotoxicity against human cell lines (CellTiter 96 AQueous); format: cell-based
Protocol: (§1) Both the NL20 human lung bronchial normal epithelial cell line and the A549 human lung alveolar adenocarcinoma epithelial cell line were used for cell cytotoxicity tests. Besides investigating the cytotoxicity of peptides, differences in cell viability between the two cell lines can be used to evaluate the cell line selectivity and to assess potential anticancer potential of the peptides. NL20 cell line was grown in Ham's F12 medium and A549 cell line was grown in Roswell Park Memorial Institute medium. Both media were supplemented with fetal bovine serum to 10% (v/v) as growth medium or 2% (v/v) as maintenance medium in cell cytotoxicity testing. The assay was performed as described by Lee et al.[26]. NL20 cells was seeded overnight at 3 × 10^4 cells/well in 96-well cell culture-treated flat bottom microtiter plate and treated with serial dilutions of peptide at a final concentration of 1.95–250 μg/ml. PEN was tested from 0.03–4 μg/ml, the same range used to classify the susceptibility of pneumococcal isolates in this study. Test using A549 cells followed the same procedures with 1 × 10^4 cells/well. Plates were incubated at 37°C under 5% CO2 for 24, 48, and 72 hrs. Cell viability was detected by using CellTiter 96® AQueous Non-Radioactive Cell Proliferation assay (Promega, USA) and the colorimetric changes were read with Glomax multidetection system (Promega, USA) at OD 490 nm. Results were pooled from three independent experiments and expressed as mean ± SD. […] Imax was the percentage of cell viable treated with peptides/PEN at the maximum concentration as defined throughout this study (all peptides 250 μg/ml, PEN 4 μg/ml).

NL20 cell line = assay: as above; format: cell-based
Protocol: as §1

[1] = concentration reducing cell viability to 50%, 24 hrs, 2% FBS medium, OD 490 nm, mean ± SD of three independent experiments
[2] = concentration reducing cell viability to 50%, 48 hrs, 2% FBS medium, OD 490 nm, mean ± SD of three independent experiments
[3] = concentration reducing cell viability to 50%, 72 hrs, 2% FBS medium, OD 490 nm, mean ± SD of three independent experiments
[4] = percentage cell viability at the highest concentration (peptides 250 μg/ml; PEN 4 μg/ml), 24 hrs, mean ± SD
[5] = percentage cell viability at the highest concentration (peptides 250 μg/ml; PEN 4 μg/ml), 48 hrs, mean ± SD
[6] = percentage cell viability at the highest concentration (peptides 250 μg/ml; PEN 4 μg/ml), 72 hrs, mean ± SD
[7] = bound stated in text for 24, 48 and 72 hrs together

Substance	IC50, A549 cell line, 24 hrs (A549 cell line; [1]) [µg/mL]	IC50, A549 cell line, 48 hrs (A549 cell line; [2]) [µg/mL]	IC50, A549 cell line, 72 hrs (A549 cell line; [3]) [µg/mL]	Imax, A549 cell line, 24 hrs (A549 cell line; [4]) [%]	Imax, A549 cell line, 48 hrs (A549 cell line; [5]) [%]	IC50, NL20 cell line, 24 hrs (NL20 cell line; [1]) [µg/mL]	IC50, NL20 cell line, 48 hrs (NL20 cell line; [2]) [µg/mL]	IC50, NL20 cell line, 72 hrs (NL20 cell line; [3]) [µg/mL]	Imax, NL20 cell line, 24 hrs (NL20 cell line; [4]) [%]	Imax, NL20 cell line, 48 hrs (NL20 cell line; [5]) [%]	Imax, NL20 cell line, 72 hrs (NL20 cell line; [6]) [%]	IC50, A549 cell line, 24 hrs (A549 cell line; 24 h) [µg/mL]	IC50, A549 cell line, 48 hrs (A549 cell line; 48 h) [µg/mL]	IC50, A549 cell line, 72 hrs (A549 cell line; 72 h) [µg/mL]	Imax, NL20 cell line, 24 hrs (NL20 cell line) [%]	Imax, NL20 cell line, 48 hrs (NL20 cell line) [%]	Imax, NL20 cell line, 72 hrs (NL20 cell line) [%]	IC50, NL20 cell line, 24 hrs (NL20 cell line; 24 h) [µg/mL]	IC50, NL20 cell line, 48 hrs (NL20 cell line; 48 h) [µg/mL]	IC50, NL20 cell line, 72 hrs (NL20 cell line; 72 h) [µg/mL]	further results
GLFDIWKKWRWRR-NH2 [DM4]	93.3 ± 5.1	103.0 ± 17.5	107.5 ± 16.3	8.5 ± 3.8	8.9 ± 1.4	160.2 ± 11.8	167.3 ± 5.9	205.0 ± 7.0	6.9 ± 6.8	5.9 ± 2.5	30.2 ± 2.9	–	–	–	–	–	–	–	–	–	IC50 of NL20 cells higher than A549 cells by, 24 hrs (NL20 cell line; difference IC50 NL20 minus IC50 A549, 24 hrs): 66.9 µg/mL; IC50 of NL20 cells higher than A549 cells by, 48 hrs (NL20 cell line; difference IC50 NL20 minus IC50 A549, 48 hrs): 64.3 µg/mL; IC50 of NL20 cells higher than A549 cells by, 72 hrs (NL20 cell line; difference IC50 NL20 minus IC50 A549, 72 hrs): 97.5 µg/mL
GLFDIWKKLRWRR-NH2 [DM5]	–	–	–	–	–	–	–	–	–	–	–	97.0 ± 9.8	106.3 ± 15.7	101.7 ± 9.5	7.3 ± 2.4	8.3 ± 4.2	9.7 ± 5.4	179.2 ± 3.8	188.2 ± 4.9	191.7 ± 3.5	IC50 of NL20 cells higher than A549 cells by, 24 hrs (NL20 cell line; 24 h): 82.2 µg/mL; IC50 of NL20 cells higher than A549 cells by, 48 hrs (NL20 cell line; 48 h): 81.9 µg/mL; IC50 of NL20 cells higher than A549 cells by, 72 hrs (NL20 cell line; 72 h): 90.0 µg/mL
GLFDIWAWWRWRR-NH2 [DM2]	–	–	–	–	–	–	–	–	–	–	–	> 250	197.7	165.0	64.3 ± 7.0	53.3 ± 9.1	46.8 ± 4.0	>250	>250	241.5 ± 9.0	difference between lowest and highest detectable MIC against S. pneumoniae: 32 fold
GLFDKWAWWRWRR-NH2 [DM1]	215.3 ± 19.7	195.0 ± 25.2	>250	38.6 ± 6.2	39.8 ± 7.7	221.8 ± 7.8	235.7 ± 12.9	242.2 ± 7.3	35.3 ± 6.6	42.2 ± 8.6	45.9 ± 4.3	–	–	–	–	–	–	–	–	–	IC50 against A549 cell line, over all time points (A549 cell line; [7]): ≥ 195.0 µg/mL; Imax, A549 cell line, 72 hrs (A549 cell line; [6]): 66.2 ± 7.2%; IC50 against NL20 cell line, over all time points (NL20 cell line; [7]): > 220 µg/mL
GLFDIWKWWRWRR-NH2 [DM3]	–	–	–	–	–	–	–	–	–	–	–	56.0 ± 9.3	80.0 ± 1.7	96.2 ± 4.4	13.3 ± 2.1	24.0 ± 7.6	12.4 ± 4.5	68.5 ± 11.0	91.5 ± 7.6	112.2 ± 8.8	–
